# According to patent publication US10954215B2, “Compounds as modulators of ROR gamma” (Boehringer Ingelheim International GmbH, priority 2016, dated 2021):
# Target: T1, RORγ (Homo sapiens, UniProt P51449)
# T1 construct: expressed in transfected cells; host or cells: HEK 293 cells, transiently transfected
# T1 sequence (P51449 269-508 limits assumed): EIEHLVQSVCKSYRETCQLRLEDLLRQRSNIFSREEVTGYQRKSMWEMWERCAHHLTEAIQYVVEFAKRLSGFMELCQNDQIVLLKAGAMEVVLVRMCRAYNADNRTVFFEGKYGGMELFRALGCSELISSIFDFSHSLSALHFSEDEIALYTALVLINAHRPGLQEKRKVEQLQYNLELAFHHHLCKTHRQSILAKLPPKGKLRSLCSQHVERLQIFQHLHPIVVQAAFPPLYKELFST
# Experiment: Reporter Gene Assay (RGA): inhibition of RORγ transactivation of a luciferase reporter in transiently transfected HEK 293 cells
# Assay type: cell-based
# Conditions: HEK 293 cells cotransfected with pGL4.3 luc2P/GAL4UAS and pBIND Gal4DBD hRORC LBD; 20-24 h incubation; luciferase luminescence
# Protocol: Reporter Gene Assay (RGA)
# A nuclear receptor transactivation assay is performed to quantitate the ability of test compounds to inhibit RORγ transactivation of a luciferase reporter. A similar assay is described in: Khan et al., Bioorganic & Medicinal Chemistry Letters 23 (2013), 532-536. The system uses transiently transfected HEK 293 cells cotransfected with two plasmids (pGL4.3, luc2P/GAL4UAS/Hygro, and pBIND, Gal4DBD hRORC LBD1-3). The positive control is co-transiently transfected with both plasmids, and the negative control contains the pGL4.3 promoter sequence. Assays are assembled in 384 well plates where transiently transfected cells and test compound at varying concentrations are incubated for 20-24 h. The next day, assays plates are taken out and equilibrated at RT for 20-30 minutes. Bright-Glo™ Luciferase Assay System is used to detect Luciferase production. After addition of Bright GLO detection reagent, the plates are incubated at RT for 20 minutes. The plates are read on an Envision plate reader to measure luminescence signal. The RLU signal is converted to POC relative to control and blank wells.
# Compound dilution buffer:
# Bright Glo Luciferase Assay System: Promega #E2620
# Thaw lysis buffer provided in kit, add 100 mL lysis buffer to substrate powder.
row,IC50 [nM],Structure (SMILES)
1,1150,CCS(=O)(=O)c1ccc(CNC(=O)N2CC(c3ccccc3)C(c3cc(C(F)(F)F)cnc3OC)C2)cc1 (stereo not drawn) [Example 44]
2,2600,CCS(=O)(=O)c1ccc(CNC(=O)N2CC(c3ccccc3)C(c3nc(C4CC4)nn3C(C)(C)C)C2)cc1 (stereo not drawn) [Example 36]
3,1300,CCS(=O)(=O)c1ccc(CNC(=O)N2CC(c3ccccc3)C(c3cn(C(C)C)nc3C(C)(C)C)C2)nc1 (stereo not drawn) [Example 40]
4,1480,CCS(=O)(=O)c1ccc(CNC(=O)N2CC(c3cccc(C4CC4)c3)C(c3cc(C4CC4)nn3C(C)C)C2)nc1 (stereo not drawn) [Example 52]
5,3200,CCS(=O)(=O)c1ccc(CNC(=O)N2CC(c3cc(C)cc(C)n3)C(c3cc(C4CC4)nn3C(C)C)C2)nc1 (stereo not drawn) [Example 46]
6,1500,CCS(=O)(=O)c1ccc(CNC(=O)N2CC(c3ccccc3)C(c3cc(C(F)(F)F)cn(C(C)C)c3=O)C2)cc1 (stereo not drawn) [Example 55]
7,1550,CCS(=O)(=O)c1ccc(CNC(=O)N2CC(c3cccc(C4CC4)n3)C(c3cc(C4CC4)nn3C(C)C)C2)nc1 (stereo not drawn) [Example 53]
8,149,CCS(=O)(=O)c1ccc(CNC(=O)N2CC(c3ccccc3)C3(C2)Oc2c(C(C)C)ccc(C)c2C3=O)cc1 (stereo not drawn) [Example 43]
9,1400,CCS(=O)(=O)c1ccc(CNC(=O)N2CC(c3cccc(Cl)c3)C(c3ccccc3C(F)(F)F)C2)nc1 (stereo not drawn) [Example 47]
10,780,CCS(=O)(=O)c1ccc(CNC(=O)N2CC(c3ccccc3)C(c3cc(C(C)(C)C)nn3C(C)C)C2)cc1 (stereo not drawn) [Example 38]
11,1950,CCS(=O)(=O)c1ccc(CNC(=O)N2CC(c3ccccc3)C(c3nc(C(C)C)nn3C(C)(C)C)C2)cc1 (stereo not drawn) [Example 42]
12,865,CCS(=O)(=O)c1ccc(CNC(=O)N2CC(c3cccc(C4CC4)n3)C(c3cn(C4CC4)nc3C(C)(C)C)C2)cc1 (stereo not drawn) [Example 56]
13,965,CNS(=O)(=O)c1ccc(CNC(=O)N2CC(c3ccccc3)C(c3cn(C(C)C)nc3C(C)(C)C)C2)cc1 (stereo not drawn) [Example 39]
14,1450,CCS(=O)(=O)c1ccc(CNC(=O)N2CC(c3ccccc3)C(c3cc(C(C)(C)C)nn3C(C)C)C2)nc1 (stereo not drawn) [Example 41]
15,1750,CCS(=O)(=O)c1ccc(CNC(=O)N2CC(c3cccc(Cl)c3)C(c3nc(C4CC4)nn3C(C)C)C2)nc1 (stereo not drawn) [Example 49]
16,440,CCS(=O)(=O)c1ccc(CNC(=O)N2CC(c3ccccc3)C(c3cn(C(C)C)nc3C(C)(C)C)C2)cc1 (stereo not drawn) [Example 37]
17,775,CCS(=O)(=O)c1ccc(CNC(=O)N2CC(c3cccc(Cl)c3)C(c3cc(C4CC4)nn3C(C)C)C2)cc1 (stereo not drawn) [Example 48]
18,260,CCS(=O)(=O)c1ccc(CNC(=O)N2CC(c3ccccc3)C3(C2)Oc2c(C(C)C)ccc(C)c2C3=O)nc1 (stereo not drawn) [Example 45]
19,5200,CCS(=O)(=O)c1cnc(CNC(=O)N2CC(c3cccc(C4CC4)n3)C(c3cc(C4CC4)nn3C(C)C)C2)nc1 (stereo not drawn) [Example 54]
20,1050,CCS(=O)(=O)c1ccc(CNC(=O)N2CC(c3cccc(C4CC4)n3)C(c3cn(C(C)C)nc3C(C)(C)C)C2)cc1 (stereo not drawn) [Example 57]

# Second part, the molecule before the results:
row,Structure (SMILES),IC50 [nM]
1,CCS(=O)(=O)c1ccc(CNC(=O)N2CC(C(C)C)C3(C2)Oc2c(C(C)C)ccc(C)c2C3=O)cc1 (stereo not drawn) [Example 10],275
2,CCS(=O)(=O)c1ccc(CNC(=O)N2CC(c3ccccc3)C(c3nn(C(C)C)nc3C3CC3)C2)cc1 (stereo not drawn) [Example 19],4100
3,CCS(=O)(=O)c1ccc(CNC(=O)N2CC(c3ccccc3)C(c3nc(C(C)C)nn3C3CC3)C2)cc1 (stereo not drawn) [Example 21],7400
4,CCS(=O)(=O)c1ccc(CNC(=O)N2CC(c3ccccc3)C(c3cn(C)nc3C(C)(C)C)C2)cc1 (stereo not drawn) [Example 9],1550
5,CCS(=O)(=O)c1ccc(CNC(=O)N2CC(c3ccccc3)C(c3ncccc3C(F)(F)F)C2)cc1 (stereo not drawn) [Example 14],1000
6,CCS(=O)(=O)c1ccc(CNC(=O)N2C[C@H](c3ccccc3)[C@@H](c3cc(C4CC4)nn3C(C)C)C2)cc1 [Example 16B],925
7,CCS(=O)(=O)c1ccc(CNC(=O)N2CC(c3ccccc3)C(c3ccccc3)C2)cc1 (stereo not drawn) [Example 1],2400
8,CCS(=O)(=O)c1ccc(CNC(=O)N2CC(c3ccccc3)C(c3cc(C4CC4)nn3C)C2)cc1 (stereo not drawn) [Example 6],2600
9,CCS(=O)(=O)c1ccc(CNC(=O)N2CC(c3ccccc3)C(c3nc(C4CC4)nn3C(C)C)C2)cc1 (stereo not drawn) [Example 22],8700
10,CNS(=O)(=O)c1ccc(CNC(=O)N2CC(c3ccccc3)C(c3cc(C4CC4)nn3C(C)C)C2)cc1 (stereo not drawn) [Example 17],2300
11,CCS(=O)(=O)c1ccc(CNC(=O)N2CC(c3ccccc3)C(c3csc4ccccc34)C2)cc1 (stereo not drawn) [Example 7],1020
12,CCS(=O)(=O)c1ccc(CNC(=O)N2CC(C(C)C)C3(C2)Oc2c(C(C)C)ccc(C)c2C3=O)nc1 (stereo not drawn) [Example 11],620
13,CCS(=O)(=O)c1ccc(CNC(=O)N2CC(c3ccccc3)C(c3cc(C4CC4)nn3C(C)C)C2)nc1 (stereo not drawn) [Example 18],2500
14,CCS(=O)(=O)c1ccc(CNC(=O)N2CC(c3ccccc3)C(c3cccc(OC(F)(F)F)c3)C2)cc1 (stereo not drawn) [Example 27],2400
15,CCS(=O)(=O)c1cnc(CNC(=O)N2CC(c3ccccc3)C(c3cc(C4CC4)nn3C(C)C)C2)nc1 (stereo not drawn) [Example 24],13000
16,CCS(=O)(=O)c1ccc(CNC(=O)N2CC(c3cccc(Cl)c3)C(c3nc(C4CC4)cs3)C2)cc1 (stereo not drawn) [Example 25],4900
17,CCS(=O)(=O)c1ccc(CNC(=O)N2CC(c3ccccc3)C(c3ccccc3)C2)cn1 (stereo not drawn) [Example 3],7900
18,CCS(=O)(=O)c1ccc(CNC(=O)N2CC(c3ccccc3)C(c3nn(C(C)C)nc3C3CC3)C2)nc1 (stereo not drawn) [Example 23],6200
19,CCS(=O)(=O)c1ccc(CNC(=O)N2CC(c3ccccc3)C(c3ccccc3OC(F)(F)F)C2)cc1 (stereo not drawn) [Example 26],850

row,Structure (SMILES),IC50 [nM]
1,CCS(=O)(=O)c1ccc(CNC(=O)N2CC(c3ccccc3)C(c3cccc(OC(F)(F)F)c3)C2)nc1 (stereo not drawn) [Example 30],5200
2,CCS(=O)(=O)c1ccc(CNC(=O)N2CC(c3ccccc3)C(c3ncccc3C3CC3)C2)cc1 (stereo not drawn) [Example 5],2800
3,CCS(=O)(=O)c1ccc(CNC(=O)N2CC(c3ccccc3)C(c3cc(C)nn3C)C2)cc1 (stereo not drawn) [Example 4],3900
4,CCS(=O)(=O)c1ccc(CNC(=O)N2CC(c3ccccc3)C(c3ccccc3)C2)nc1 (stereo not drawn) [Example 2],5000
5,CCS(=O)(=O)c1ccc(CNC(=O)N2CC(c3ccccc3)C(c3cc(C4CC4)nn3C(C)C)C2)cc1 (stereo not drawn) [Example 16A],625
6,CCS(=O)(=O)c1ccc(CNC(=O)N2CC(c3cccc(Cl)c3)C(c3cccc4cnccc34)C2)cc1 (stereo not drawn) [Example 32],1200
7,CCS(=O)(=O)c1ccc(CNC(=O)N2CC(c3ccccc3)C(c3cc(C4CC4)nn3CC3CC3)C2)nc1 (stereo not drawn) [Example 31],2200
8,CCS(=O)(=O)c1ccc(CNC(=O)N2CC(c3ccccc3)C(c3cc(C4CC4)nn3CC3CC3)C2)cc1 (stereo not drawn) [Example 28],1060
9,CCS(=O)(=O)c1ccc(CNC(=O)N2CC(c3ccccc3)C(c3cc(C)nn3C3CCCC3)C2)cc1 (stereo not drawn) [Example 15],565
10,CCS(=O)(=O)c1ccc(CNC(=O)N2CC(c3ccccc3)C(c3ccccc3OC(F)(F)F)C2)nc1 (stereo not drawn) [Example 29],830
11,CCS(=O)(=O)c1ccc(CNC(=O)N2CC(c3ccccc3)C(c3cc(C4CC4)nn3C(C)C)C2)cn1 (stereo not drawn) [Example 20],5500
12,CCn1nc(C2CC2)cc1C1CN(C(=O)NCc2ccc(S(=O)(=O)CC)cc2)CC1c1ccccc1 (stereo not drawn) [Example 8],1750
13,CCS(=O)(=O)c1ccc(CNC(=O)N2CC(c3ccccc3)C(c3cn(C4CC4)nc3C(C)(C)C)C2)nc1 (stereo not drawn) [Example 35],1900
14,CNS(=O)(=O)c1ccc(CNC(=O)N2CC(c3ccccc3)C(c3cn(C4CC4)nc3C(C)(C)C)C2)cc1 (stereo not drawn) [Example 34],1300
15,CCS(=O)(=O)c1ccc(CNC(=O)N2C[C@@H](c3ccccc3)[C@H](c3cc(C4CC4)nn3C(C)C)C2)cc1 [Example 16C],1250
16,CCS(=O)(=O)c1ccc(CNC(=O)N2CC(c3ccccc3)C(c3ccnn3-c3ccccc3)C2)cc1 (stereo not drawn) [Example 12],2100
17,CCS(=O)(=O)c1ccc(CNC(=O)N2CC(c3ccccc3)C(c3cn(C4CC4)nc3C(C)(C)C)C2)cc1 (stereo not drawn) [Example 33],510
18,CCS(=O)(=O)c1ccc(CNC(=O)N2CC(c3cccc(Cl)c3)C(c3nc(C(C)C)no3)C2)cc1 (stereo not drawn) [Example 13],19000
